Experimental data published in patent publication US11234976B2, “Methods of using pyruvate kinase activators” (Agios Pharmaceuticals, Inc., priority 2015, dated 2022).
Where two headings read alike, the source gives them in different places.

Columns and labels:
[1] = MAD study safety and tolerability; conditions: doses between 360 and 700 not explored
Source text: (§2) Adverse events (AEs), laboratory parameters, ECGs, and vital signs were monitored.

PKD red cells = test: Ex-vivo treatment of PKD red cells; format: cell-based, human; conditions: PKD red cells treated ex-vivo
[2] = target: cytochrome P450 3A4 (CYP3A4) (Homo sapiens, UniProt P08684); test: Pre-clinical CYP3A4 induction / metabolism; format: in vitro ADME
PK-R [3] = system: PK-R
Experimental: (§1) Key exclusion criteria included glucose 6-phosphate dehydrogenase deficiency, blood donation, blood loss of greater than 500 mL, or transfusion of blood or plasma within three months of screening.

[4] = SAD study pharmacokinetics in healthy subjects; format: in vivo, human; conditions: for half-life: oral
Experimental: . Key exclusion criteria included glucose 6-phosphate dehydrogenase deficiency, blood donation, blood loss of greater than 500 mL, or transfusion of blood or plasma within three months of screening.

[5] = SAD study safety and tolerability; format: in vivo, human
Experimental: as §1

PKR = PKR (Mus musculus, UniProt P53657)
Source text: Dose levels tested were 1 mpk, 10 mpk, 50 mpk, and 150 mpk. Following the last dose, mice were bled to evaluate drug exposure and pharmacodynamic markers including 2,3-DPG and ATP levels, and PKR activity.

[6] = MAD study pharmacokinetics in healthy subjects
PKR reaction = test: PKR flux in whole blood from treated mice ([U-13C6]-glucose); format: in vivo, C57BL/6 mice; conditions: 100 mpk BID, 13 doses, oral gavage; kinetic flux model
Experimental: Whole blood was incubated with [U-^13C6]-glucose at 37° C. and the metabolite pool sizes and rate of ^13C label incorporation into glycolytic intermediates were assessed. The data were subsequently analyzed using a mathematical kinetic flux model to quantify the overall change in carbon flow through the PKR reaction.

[7] = in vivo
Source text: as §2

Drug exposure in mice = format: in vivo, C57/BL6 mice; conditions: oral gavage, 1-150 mpk, single dose and multiple dose (13 doses, BID)
Source text: Dose levels tested were 1 mpk, 10 mpk, 50 mpk, and 150 mpk. Following the last dose, mice were bled to evaluate drug exposure and pharmacodynamic markers including 2,3-DPG and ATP levels, and PKR activity. […]. […]

[8] = system: recombinantly expressed PKR mutant proteins; test: Activation of recombinantly expressed PKR mutant proteins; format: biochemical
PK-R [9] = test: MAD study pharmacodynamics (blood 2,3-DPG and ATP)
[10] = single oral dose, 1, 10, 50, 150 mpk

Sequence of PKR (P53657 whole entry): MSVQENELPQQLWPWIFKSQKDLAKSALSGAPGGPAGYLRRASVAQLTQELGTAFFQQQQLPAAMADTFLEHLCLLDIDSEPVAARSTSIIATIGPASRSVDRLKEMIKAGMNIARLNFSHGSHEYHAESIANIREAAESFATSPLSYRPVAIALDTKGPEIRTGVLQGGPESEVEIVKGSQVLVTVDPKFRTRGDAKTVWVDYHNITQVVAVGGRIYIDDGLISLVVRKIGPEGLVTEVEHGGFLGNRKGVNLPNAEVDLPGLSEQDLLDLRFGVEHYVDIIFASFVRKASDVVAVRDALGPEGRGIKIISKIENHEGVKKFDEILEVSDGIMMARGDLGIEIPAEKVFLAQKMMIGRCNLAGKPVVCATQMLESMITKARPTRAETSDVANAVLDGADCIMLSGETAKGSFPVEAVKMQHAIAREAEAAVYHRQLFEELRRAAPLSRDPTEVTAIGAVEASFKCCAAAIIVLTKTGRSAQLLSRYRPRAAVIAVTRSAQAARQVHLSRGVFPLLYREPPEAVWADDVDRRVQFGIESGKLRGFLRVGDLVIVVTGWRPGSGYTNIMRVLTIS
Sequence of cytochrome P450 3A4 (CYP3A4) (P08684 whole entry): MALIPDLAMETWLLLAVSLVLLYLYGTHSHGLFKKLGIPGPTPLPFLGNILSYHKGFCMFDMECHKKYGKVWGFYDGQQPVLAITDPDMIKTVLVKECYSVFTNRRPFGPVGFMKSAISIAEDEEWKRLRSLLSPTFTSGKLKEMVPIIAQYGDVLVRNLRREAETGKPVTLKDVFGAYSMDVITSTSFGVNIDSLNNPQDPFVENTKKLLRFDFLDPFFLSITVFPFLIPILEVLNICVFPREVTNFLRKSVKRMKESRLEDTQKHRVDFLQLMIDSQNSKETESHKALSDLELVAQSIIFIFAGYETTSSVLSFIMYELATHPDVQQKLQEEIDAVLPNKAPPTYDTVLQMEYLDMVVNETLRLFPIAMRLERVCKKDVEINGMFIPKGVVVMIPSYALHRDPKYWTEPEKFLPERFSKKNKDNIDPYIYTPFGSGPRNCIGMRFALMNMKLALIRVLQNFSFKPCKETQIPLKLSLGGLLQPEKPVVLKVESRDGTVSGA

O=C(c1ccc(NS(=O)(=O)c2cccc3cccnc23)cc1)N1CCN(CC2CC2)CC1 [Compound 1, N-(4-(4-(cyclopropylmethyl)piperazine-1-carbonyl)phenyl)quinoline-8-sulfonamide]
highest well-tolerated dose [1]: 360 mg q12h
2,3-DPG levels (PKD red cells): reduced 2,3-DPG levels
ATP levels (PKD red cells): increased ATP levels
PKR enzyme activity levels (PKD red cells): increased PKR enzyme activity levels
role of CYP3A4 in metabolism of the compound [2]: major route of the oxidative metabolism
CYP3A4 induction ([2]; pre-clinical data): moderate inducer
blood ATP levels (PK-R [3]; after a single dose, SAD study): minimal increases
time for 2,3-DPG to return to placebo levels (PK-R [3]; after single dose): 72 h
half-life ([4]; both sexes, human, plasma, concentrations measured for 72 hours, read-out: mean apparent terminal half-life (t1/2)): 17.5 to 20.5 h
half-life ([4]; both sexes, human, plasma, concentrations measured for 120 hours, read-out: mean apparent terminal half-life (t1/2)): 50 to 80 h
half-life ([4]; both sexes, human, plasma, first 12 hours following dosing, read-out: apparent half-life of rapid distribution or elimination phase): 2 to 4 h
Tmax ([4]; both sexes, human, plasma, single oral dose, SAD cohorts, read-out: median Tmax): 0.75 to 4 h
effect of food on exposure ([4]; fed vs fasted, preliminary results): minimal effect
exposure (mean plasma Cmax, AUC0-12 hr and AUC0-72 hr) ([4]; single doses, SAD cohorts 1-6): increased in a dose-proportional manner
serious AEs, discontinuations due to AEs, dose-limiting toxicities ([5]; SAD and 2 completed MAD cohorts): no serious AEs, discontinuations due to AEs, or dose-limiting toxicities
maximum tolerated dose ([5]; single oral dose 30-2500 mg): not reached
ATP levels in whole blood (PKR; multiple doses (13 doses, BID), 1, 10, 50, 150 mpk): robustly increased in a dose-dependent manner
2,3-DPG levels in whole blood (PKR; [10]): reduction in 2,3-DPG levels
ATP levels in whole blood (PKR; [10]): no significant changes
plasma exposure ([6]; 15-700 mg q12h, 120 mg q24h): dose dependent
pharmacokinetic parameter values Day 14 compared with Day 1 ([6]; MAD cohorts 1 and 2 (120 mg BID, 360 mg BID)): lower on Day 14
glycolytic flux through the PKR reaction (PKR reaction): significantly increased
dose at which gastrointestinal AEs occurred ([7]; both, human, 14 days): 700 mg q12h
severity of treatment-related AEs ([7]; both, human, 14 days): mild or moderate (only 1 grade 3 event)
subjects with related headache ([7]; both, human, 14 days): 14%
subjects with related nausea ([7]; both, human, 14 days): 14%
subjects with treatment related ≥1 AEs ([7]; both, human, 14 days): 31%
subjects with ≥1 AE ([7]; both, human, 14 days): 44%
number of discontinuations [7]: four
drug exposure (Drug exposure in mice): dose-proportional increase in exposure
activity of mutated PK-R enzymes ([8]; pre-clinical studies): increases the activity
protein stability of PKR mutant proteins ([8]; recombinantly expressed PKR mutants associated with PKD): enhances the protein stability
effect on ATP levels after first dose (PK-R [9]; 12 hours following the first dose): minimal
ATP levels in the blood (PK-R [9]; Days 8-14, MAD cohorts 1 and 2): substantial increases
2,3-DPG levels (PK-R [9]; after final dose, MAD cohorts 1 and 2): decreases in 2,3-DPG levels
time ATP levels remained elevated (PK-R [9]; after the last dose, MAD cohorts 1 and 2): ≥ 72 h
dose at which decrease in 2,3-DPG and increase in ATP plateau (PK-R [9]; in vivo): 360 mg q12h
time for 2,3-DPG decrease to reach full extent (PK-R [9]; of dosing): ≤ 7 days
time for ATP increase to reach full extent (PK-R [9]; of dosing): ≤ 10 days
